This is an account of results in publication PMC9519446, “Discovery of an Orally Active Benzoxaborole Prodrug Effective in the Treatment of Chagas Disease in Non-human Primates” (Nature microbiology, 2022).

The subject of the assay is T. cruzi (naturally acquired infection). Kind of assay: NHP treatment study: blood qPCR for T. cruzi DNA. In kind it is in vivo, rhesus macaques (Macaca mulatta). The text has this: A total of 22 rhesus macaques that had been confirmed to be serologically- and PCR-positive for T. cruzi were utilized in these studies. Using 19 animals in the treatment group provided 85% power of detecting 100% efficacy. […] The remaining three animals on the study were maintained as untreated control animals and received food treats but were not dosed with AN15368.
Blood samples from each macaque were collected at various time points and processed for quantification of T. cruzi DNA by real-time qPCR. Between 8-10ml of whole blood collected in EDTA anticoagulant tubes was subjected to DNA extraction using the Omega E.Z.N.A. Blood DNA Maxi Kit (Omega Bio-Tek), following the manufacturer’s instructions for up to 10 ml whole blood and using a total of 650 μl of elution buffer. Each round of extractions included a negative (no-template) control comprised of 10 ml PBS. The concentration of DNA in the eluted solution was quantified after each extraction using an Epoch microplate spectrophotometer (BioTek).
DNA from each sample was then subjected to a series of two qPCR assays for detection of T. cruzi satellite DNA. The first qPCR used the cruzi 1, 2 primer set and cruzi 3 TaqMan probe as previously described, [54], using BioRad iTaq Universal Probes Supermix (Bio-Rad). […] We selected FAM and VIC channels for each read.
Background: In qPCR the cycle at which signal appears reflects the starting amount.

Consider `Cc1c(C(=O)N[C@H](C(=O)OCC2CCOCC2)C(C)C)ccc2c1B(O)OC2` [AN15368], for which, where the note is “30 mg/kg/day oral 60 days, all time points after end of treatment”, the “parasite DNA in blood (in words)” value is reported as “negative”. For the setting “naturally infected NHPs, 30 mg/kg/day 60 days”, this compound yielded an efficacy / cure of 100%.
